Test results reported in the CheMixHub viscosity set.
± gives the uncertainty stated by the source.

Assay: xn = mol fraction of the nth substance listed

CCCCCO + CC#N
viscosity [mPa·s], 101 kPa
Settings | 298.15 K | 303.15 K | 308.15 K
x2 = 0.1083 | 2.485 ± 0.22 | 1.966 ± 0.18 | 1.752 ± 0.16
x2 = 0.1933 | 1.918 ± 0.17 | 1.703 ± 0.15 | 1.519 ± 0.14
x2 = 0.2503 | 1.717 ± 0.15 | 1.477 ± 0.14 | 1.334 ± 0.12
x2 = 0.3407 | 1.33 ± 0.12 | 1.2 ± 0.11 | 1.088 ± 0.1
x2 = 0.4797 | 0.963 ± 0.093 | 0.879 ± 0.086 | 0.804 ± 0.079
x2 = 0.5899 | 0.747 ± 0.075 | 0.688 ± 0.07 | 0.636 ± 0.065
x2 = 0.6833 | 0.619 ± 0.064 | 0.569 ± 0.06 | 0.527 ± 0.056
x2 = 0.7642 | 0.525 ± 0.056 | 0.486 ± 0.053 | 0.458 ± 0.05
x2 = 0.8347 | 0.452 ± 0.05 | 0.428 ± 0.048 | 0.41 ± 0.046
x2 = 0.8958 | 0.418 ± 0.047 | 0.392 ± 0.045 | 0.369 ± 0.043
x2 = 0.9508 | 0.374 ± 0.043 | 0.357 ± 0.042 | 0.342 ± 0.041

Cc1ccnc(C)c1 + C1CCCCC1
viscosity [mPa·s], 101 kPa
Settings | x1 = 0.1087 | x1 = 0.208 | x1 = 0.3004 | x1 = 0.407 | x1 = 0.507 | x1 = 0.6004 | x1 = 0.6977 | x1 = 0.8002 | x1 = 0.9019
303 K | 0.7378 ± 0.0052 | 0.6882 ± 0.005 | 0.6701 ± 0.0049 | 0.6574 ± 0.0049 | 0.6585 ± 0.005 | 0.6674 ± 0.0051 | 0.6805 ± 0.0053 | 0.7102 ± 0.0056 | 0.7412 ± 0.0059
313 K | 0.6355 ± 0.0046 | 0.6204 ± 0.0045 | 0.6004 ± 0.0045 | 0.5891 ± 0.0045 | 0.5844 ± 0.0045 | 0.6004 ± 0.0047 | 0.6055 ± 0.0048 | 0.6285 ± 0.005 | 0.6543 ± 0.0053
323 K | 0.5624 ± 0.0041 | 0.533 ± 0.004 | 0.5166 ± 0.0039 | 0.5092 ± 0.004 | 0.5073 ± 0.004 | 0.52 ± 0.0041 | 0.54 ± 0.0043 | 0.5502 ± 0.0045 | 0.583 ± 0.0048

CC12CC3CC(C)(C1)CC(C)(C3)C2 + CCCCCCCCC
viscosity [mPa·s], 100 kPa
Settings | x1 = 0.1012 | x1 = 0.2132 | x1 = 0.3009 | x1 = 0.3978 | x1 = 0.4998 | x1 = 0.6007 | x1 = 0.6969 | x1 = 0.7984 | x1 = 0.8985
293.15 K | 0.831 ± 0.034 | 0.936 ± 0.038 | 1.021 ± 0.041 | 1.11 ± 0.045 | 1.231 ± 0.05 | 1.395 ± 0.057 | 1.593 ± 0.065 | 1.852 ± 0.075 | 2.201 ± 0.089
298.15 K | 0.775 ± 0.032 | 0.87 ± 0.035 | 0.95 ± 0.039 | 1.028 ± 0.042 | 1.135 ± 0.046 | 1.282 ± 0.052 | 1.458 ± 0.059 | 1.685 ± 0.069 | 1.995 ± 0.081
303.15 K | 0.726 ± 0.03 | 0.812 ± 0.033 | 0.883 ± 0.036 | 0.952 ± 0.039 | 1.052 ± 0.043 | 1.183 ± 0.048 | 1.342 ± 0.055 | 1.544 ± 0.063 | 1.818 ± 0.074
308.15 K | 0.682 ± 0.028 | 0.76 ± 0.031 | 0.825 ± 0.034 | 0.889 ± 0.036 | 0.978 ± 0.04 | 1.095 ± 0.045 | 1.238 ± 0.05 | 1.418 ± 0.058 | 1.662 ± 0.068
313.15 K | 0.639 ± 0.026 | 0.711 ± 0.029 | 0.771 ± 0.031 | 0.831 ± 0.034 | 0.914 ± 0.037 | 1.022 ± 0.042 | 1.147 ± 0.047 | 1.309 ± 0.053 | 1.526 ± 0.062
318.15 K | 0.603 ± 0.025 | 0.67 ± 0.027 | 0.724 ± 0.029 | 0.781 ± 0.032 | 0.859 ± 0.035 | 0.954 ± 0.039 | 1.067 ± 0.043 | 1.212 ± 0.049 | 1.408 ± 0.057
323.15 K | 0.569 ± 0.023 | 0.633 ± 0.026 | 0.681 ± 0.028 | 0.737 ± 0.03 | 0.807 ± 0.033 | 0.894 ± 0.036 | 0.996 ± 0.04 | 1.13 ± 0.046 | 1.304 ± 0.053

CCCCCCCCCCCCCC + CC(C)CC(C)(C)C
298.15 K, 101 kPa
Settings | viscosity [mPa·s]
x2 = 0.1084 | 1.813 ± 0.018
x2 = 0.1551 | 1.724 ± 0.017
x2 = 0.1801 | 1.702 ± 0.017
x2 = 0.2807 | 1.483 ± 0.015
x2 = 0.4042 | 1.265 ± 0.013
x2 = 0.5162 | 1.086 ± 0.011
x2 = 0.6304 | 0.9193 ± 0.0092
x2 = 0.7095 | 0.8085 ± 0.0081
x2 = 0.7868 | 0.7168 ± 0.0072
x2 = 0.8111 | 0.6841 ± 0.0069
x2 = 0.8616 | 0.6216 ± 0.0063
x2 = 0.9166 | 0.5603 ± 0.0057
x2 = 0.9516 | 0.5263 ± 0.0053
x2 = 0.9768 | 0.5023 ± 0.0051
